For data set [1], the target named is T1, Peroxisome proliferator-activated receptor gamma (Homo sapiens, UniProt P37231).
T1 sequence (P37231 whole entry): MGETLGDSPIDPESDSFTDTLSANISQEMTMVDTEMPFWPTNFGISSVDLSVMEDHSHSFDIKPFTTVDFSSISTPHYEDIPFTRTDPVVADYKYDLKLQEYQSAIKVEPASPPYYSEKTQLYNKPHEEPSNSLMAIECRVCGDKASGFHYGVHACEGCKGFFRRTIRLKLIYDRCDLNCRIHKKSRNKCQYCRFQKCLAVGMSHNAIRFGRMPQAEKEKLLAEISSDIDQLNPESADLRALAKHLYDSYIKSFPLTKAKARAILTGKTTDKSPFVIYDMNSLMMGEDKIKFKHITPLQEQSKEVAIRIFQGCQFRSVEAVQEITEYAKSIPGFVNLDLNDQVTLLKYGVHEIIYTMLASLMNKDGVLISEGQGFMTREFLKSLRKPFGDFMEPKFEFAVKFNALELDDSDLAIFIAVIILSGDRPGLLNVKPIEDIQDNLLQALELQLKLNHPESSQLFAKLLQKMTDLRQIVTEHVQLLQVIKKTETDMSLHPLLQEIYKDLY
Description: Partial agonist activity at human PPARgamma-LBD/Gal4 DNA binding domain by transactivation assay.

In data set [2] the target is T2, Type-1 angiotensin II receptor (Homo sapiens, UniProt P30556).
T2 sequence (P30556 whole entry): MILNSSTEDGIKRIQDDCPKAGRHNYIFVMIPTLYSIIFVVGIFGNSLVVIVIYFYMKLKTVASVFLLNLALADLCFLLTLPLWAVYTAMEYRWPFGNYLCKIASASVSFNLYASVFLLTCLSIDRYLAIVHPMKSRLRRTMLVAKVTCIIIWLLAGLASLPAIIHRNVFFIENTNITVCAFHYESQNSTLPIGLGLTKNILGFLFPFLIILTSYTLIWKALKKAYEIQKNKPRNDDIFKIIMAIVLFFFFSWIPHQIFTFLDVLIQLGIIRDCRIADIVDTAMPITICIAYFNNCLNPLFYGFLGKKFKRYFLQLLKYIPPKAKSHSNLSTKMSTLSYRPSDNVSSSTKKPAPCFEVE

The next data set has as its target Cytochrome P450 2D6 (Homo sapiens, UniProt P10635). Description: Inhibition of CYP2D6 (unknown origin). Type of data set: ADME.
The target of another data set is Cytochrome P450 3A4 (Homo sapiens, UniProt P08684). Description: Inhibition of CYP3A4 (unknown origin). The data set is classed as ADME.
Data set [3] can be described thus: Permeability of the compound by PAMPA. Type of data set: ADME. Particulars: read-out: permeability. (In general: In PAMPA a lipid-coated filter parts donor from acceptor wells.)
The nature of data set [4]: Octanol-buffer distribution co-efficient, log D of the compound by shake-flask method. Type of data set: physicochemical.
Data set [5] in a line: Intrinsic clearance in human liver microsomes. (Liver microsomes are vesicles of endoplasmic reticulum, rich in cytochrome P450 enzymes.)
Data set [6] can be described thus: Kinetic solubility of the compound in potassium phosphate buffer at pH 6.5. The data set is classed as physicochemical. The settings on record: read-out: Kinetic_solubility.
The target in data set [7] is T3, Peroxisome proliferator-activated receptor delta (Homo sapiens, UniProt Q03181).
T3 sequence (Q03181 whole entry): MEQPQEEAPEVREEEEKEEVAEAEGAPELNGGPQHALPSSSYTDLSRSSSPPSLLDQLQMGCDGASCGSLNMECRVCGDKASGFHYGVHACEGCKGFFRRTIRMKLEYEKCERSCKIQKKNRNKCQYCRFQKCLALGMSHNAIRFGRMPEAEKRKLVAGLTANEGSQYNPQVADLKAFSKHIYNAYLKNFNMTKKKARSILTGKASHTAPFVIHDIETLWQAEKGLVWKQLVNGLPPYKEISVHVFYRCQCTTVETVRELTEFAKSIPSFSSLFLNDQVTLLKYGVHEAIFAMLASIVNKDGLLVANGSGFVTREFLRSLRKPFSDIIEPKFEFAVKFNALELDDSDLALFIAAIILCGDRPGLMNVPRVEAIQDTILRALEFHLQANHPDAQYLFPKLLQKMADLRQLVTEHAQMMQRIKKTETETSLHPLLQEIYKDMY
Description: Agonist activity at PPARbeta (unknown origin).

The target of data set [8] is T4, Peroxisome proliferator-activated receptor alpha (Homo sapiens, UniProt Q07869).
T4 sequence (Q07869 whole entry): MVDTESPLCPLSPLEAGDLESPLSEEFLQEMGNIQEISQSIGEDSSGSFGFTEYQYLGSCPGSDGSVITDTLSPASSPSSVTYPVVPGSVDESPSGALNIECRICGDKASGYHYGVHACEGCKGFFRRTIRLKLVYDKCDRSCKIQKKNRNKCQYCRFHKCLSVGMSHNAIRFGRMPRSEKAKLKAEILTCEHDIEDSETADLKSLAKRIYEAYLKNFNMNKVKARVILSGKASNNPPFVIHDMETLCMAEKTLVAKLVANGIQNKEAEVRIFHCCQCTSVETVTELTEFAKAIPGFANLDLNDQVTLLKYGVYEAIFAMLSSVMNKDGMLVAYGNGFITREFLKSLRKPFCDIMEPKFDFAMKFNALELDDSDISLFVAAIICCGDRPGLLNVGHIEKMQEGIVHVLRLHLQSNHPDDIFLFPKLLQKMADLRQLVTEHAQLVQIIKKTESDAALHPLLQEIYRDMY
Nature of the data set: Agonist activity at PPARalpha (unknown origin).

The EC50 is the concentration that produces a half-maximal response. Low readings indicate greater potency, high ones weaker potency. Broadly, the IC50 is the concentration at which inhibition is half-maximal. Low readings indicate greater potency in that assay, high ones weaker potency in that assay. A word on the logD: it is lipophilicity at a set pH, counting ionised and neutral species. Broadly, the microsomal CLint is the rate of metabolic loss divided by the concentration. A high value points to rapid turnover.

Converted amounts (≈) assume the structure as drawn.

Sequence of Cytochrome P450 2D6 (P10635 whole entry): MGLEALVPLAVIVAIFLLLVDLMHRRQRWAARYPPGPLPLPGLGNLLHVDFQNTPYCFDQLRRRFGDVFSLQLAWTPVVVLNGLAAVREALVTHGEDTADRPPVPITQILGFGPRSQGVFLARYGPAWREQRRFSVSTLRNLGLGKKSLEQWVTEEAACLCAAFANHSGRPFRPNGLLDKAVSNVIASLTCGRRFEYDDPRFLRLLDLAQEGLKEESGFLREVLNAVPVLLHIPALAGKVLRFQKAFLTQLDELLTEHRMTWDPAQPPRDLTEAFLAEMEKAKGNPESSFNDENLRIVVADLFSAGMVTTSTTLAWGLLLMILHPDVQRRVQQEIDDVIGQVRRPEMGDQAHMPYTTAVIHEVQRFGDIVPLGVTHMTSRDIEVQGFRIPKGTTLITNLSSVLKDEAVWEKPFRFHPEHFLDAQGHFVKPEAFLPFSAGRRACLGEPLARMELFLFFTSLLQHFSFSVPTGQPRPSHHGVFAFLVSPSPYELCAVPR
Sequence of Cytochrome P450 3A4 (P08684 whole entry): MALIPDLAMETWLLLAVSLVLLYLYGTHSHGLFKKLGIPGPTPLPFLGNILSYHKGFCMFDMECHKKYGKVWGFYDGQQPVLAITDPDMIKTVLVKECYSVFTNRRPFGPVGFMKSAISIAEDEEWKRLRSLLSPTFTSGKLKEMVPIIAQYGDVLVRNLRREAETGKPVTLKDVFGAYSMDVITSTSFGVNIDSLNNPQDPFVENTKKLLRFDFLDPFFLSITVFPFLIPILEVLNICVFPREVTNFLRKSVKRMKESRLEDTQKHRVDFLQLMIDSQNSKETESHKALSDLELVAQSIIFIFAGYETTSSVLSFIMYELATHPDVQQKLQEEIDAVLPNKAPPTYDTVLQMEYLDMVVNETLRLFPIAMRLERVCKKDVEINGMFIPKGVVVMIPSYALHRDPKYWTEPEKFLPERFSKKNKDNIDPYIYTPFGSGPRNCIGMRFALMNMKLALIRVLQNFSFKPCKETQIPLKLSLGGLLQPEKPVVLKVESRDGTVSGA

In data set [1], `CCc1nc2ccn(Cc3cccnc3)c(=O)c2n1[C@H]1CCc2cc(-c3ccccc3-c3nnn[nH]3)ccc21` gave an EC50 of 3640 nM. Moreover, in [2], half-maximal inhibition (IC50) required 45.2 nM.
Compound `CCc1nc2ccn(Cc3ccncc3)c(=O)c2n1[C@H]1CCc2cc(-c3ccccc3-c3nnn[nH]3)ccc21` displayed an EC50 in data set [1] of over 25000 nM. The compound also had an IC50 in data set [2] of 250 nM.
The like results for `CCc1nc2ccn(Cc3c(C)noc3C)c(=O)c2n1[C@H]1CCc2cc(-c3ccccc3-c3nnn[nH]3)ccc21` were, in that order, 4470 nM and 63.4 nM.
With `CCc1nc2c(C)cn(Cc3ccccc3C)c(=O)c2n1[C@H]1CCc2cc(-c3ccccc3-c3nnn[nH]3)ccc21`, the “inhibition (INH)” value against Cytochrome P450 2D6 is recorded as 4.5%; on Cytochrome P450 3A4, 3.5%. Besides, the Papp in data set [3] turned out to be 7 ×10⁻⁶ cm/s. In data set [4], this compound yielded a log distribution coefficient (logD) of 2.9. Besides, the intrinsic clearance (microsomal CLint) in [5] is 37.5 µL/min/mg. In addition, the concentration for a half-maximal effect (EC50) in [1] turned out to be 42 nM. In [2], this compound came in with a half-maximal inhibitory concentration (IC50) of 6.8 nM.
Turning to `CCc1nc2c(C)cn(Cc3ccccc3C#N)c(=O)c2n1[C@H]1CCc2cc(-c3ccccc3-c3nnn[nH]3)ccc21`, the “inhibition (INH)” value on Cytochrome P450 2D6 and against Cytochrome P450 3A4 was 0% in each case. In addition, the solubility kinetic in data set [6] was found to be 5.2 µM (≈ 2.87 µg/mL). The Papp in [3] stood at 19 ×10⁻⁶ cm/s. Moreover, the logD in [4] stood at 2.5. This compound displayed an intrinsic metabolic clearance (microsomal CLint) in [5] of 20.7 µL/min/mg. For the same compound, it took 295 nM to reach a half-maximal effect in data set [1] (EC50). The compound further had a concentration for half-maximal inhibition (IC50) in [2] of 7 nM.
`CCc1nc2cc[nH]c(=O)c2n1[C@H]1CCc2cc(-c3ccccc3-c3nnn[nH]3)ccc21` displayed an EC50 in data set [1] of over 100000 nM. In [2], this compound showed an IC50 of 593 nM.
Consider `CCc1nc2ccn(Cc3ccccc3)c(=O)c2n1[C@H]1CCc2cc(-c3ccccc3-c3nnn[nH]3)ccc21`, for which the concentration for a half-maximal effect (EC50) in data set [7] is over 50 µM; in data set [8], over 50 µM; in data set [1], 292 nM. Further, inhibition in data set [2] was half-maximal at 12.7 nM (IC50).
Turning to `CCc1nc2ccn(CC(=O)N(C)C)c(=O)c2n1[C@H]1CCc2cc(-c3ccccc3-c3nnn[nH]3)ccc21`, the EC50 in data set [1] is over 100000 nM. Also, the concentration for half-maximal inhibition (IC50) in data set [2] worked out at 24.4 nM.
The like results for `CCc1nc2ccn(CC(=O)OCc3ccccc3)c(=O)c2n1[C@H]1CCc2cc(-c3ccccc3-c3nnn[nH]3)ccc21` were, in that order, 1250 nM and 19.8 nM.
The like results for `CCc1nc2ccn(CC(=O)O)c(=O)c2n1[C@H]1CCc2cc(-c3ccccc3-c3nnn[nH]3)ccc21` were, in that order, over 100000 nM and 348 nM.
For `CCc1nc2ccn(CC(C)C)c(=O)c2n1[C@H]1CCc2cc(-c3ccccc3-c3nnn[nH]3)ccc21`, in that order: 1710 nM and 19.4 nM.
On to `CCc1nc2ccn(CC3CCCCC3)c(=O)c2n1[C@H]1CCc2cc(-c3ccccc3-c3nnn[nH]3)ccc21`, for which it took 942 nM to reach a half-maximal effect in data set [1] (EC50). Also, the concentration for half-maximal inhibition (IC50) in data set [2] was 41 nM.
For `CCc1nc2ccn(Cc3ccccc3F)c(=O)c2n1[C@H]1CCc2cc(-c3ccccc3-c3nnn[nH]3)ccc21`, in that order: 103 nM and 37.7 nM.
On to `CCc1nc2ccn(Cc3ccccc3C)c(=O)c2n1[C@H]1CCc2cc(-c3ccccc3-c3nnn[nH]3)ccc21`, for which the “inhibition (INH)” value was determined as 6% on Cytochrome P450 2D6 and 14% against Cytochrome P450 3A4. The solubility kinetic in [6] stood at 3.5 µM (≈ 1.85 µg/mL). The Papp in data set [3] stood at 3.6 ×10⁻⁶ cm/s. Further, in [4], the logD was found to be 2.6. The compound further returned a microsomal CLint in [5] of 32.6 µL/min/mg. In addition, the EC50 in data set [1] is 97 nM. In addition, half-maximal inhibition in [2] (IC50) required 5.1 nM.
Regarding `CCc1nc2ccn(Cc3ccccc3C#N)c(=O)c2n1[C@H]1CCc2cc(-c3ccccc3-c3nnn[nH]3)ccc21`, the “inhibition (INH)” value against Cytochrome P450 2D6 was found to be 11%; against Cytochrome P450 3A4 it was 31%. The solubility kinetic in [6] worked out at 11.7 µM (≈ 6.3 µg/mL). In addition, the Papp in [3] came to 10.7 ×10⁻⁶ cm/s. In data set [4], this compound showed a pH-dependent lipophilicity (logD) of 1.7. In data set [5], this compound yielded a microsomal CLint of 14 µL/min/mg. The compound further displayed an EC50 in [1] of 685 nM. In [2], this compound gave a concentration for half-maximal inhibition (IC50) of 13.5 nM.
On to `CCc1nc2ccn(Cc3ccccc3C(F)(F)F)c(=O)c2n1[C@H]1CCc2cc(-c3ccccc3-c3nnn[nH]3)ccc21`, for which the EC50 in data set [1] turned out to be 187 nM. In [2], this compound yielded a half-inhibitory concentration (IC50) of 94.1 nM.
The like results for `CCc1nc2ccn(Cc3ccccc3OC(F)(F)F)c(=O)c2n1[C@H]1CCc2cc(-c3ccccc3-c3nnn[nH]3)ccc21` were, in that order, 20 nM and 29.3 nM.
For `CCc1nc2ccn(Cc3cccc(F)c3)c(=O)c2n1[C@H]1CCc2cc(-c3ccccc3-c3nnn[nH]3)ccc21`, in that order: 159 nM and 67.4 nM.
The like results for `CCc1nc2ccn(Cc3cccc(C)c3)c(=O)c2n1[C@H]1CCc2cc(-c3ccccc3-c3nnn[nH]3)ccc21` were, in that order, 108 nM and 36.9 nM.
Compound `CCc1nc2ccn(Cc3cccc(C(F)(F)F)c3)c(=O)c2n1[C@H]1CCc2cc(-c3ccccc3-c3nnn[nH]3)ccc21` had an EC50 in [1] of 449 nM. The compound also had a concentration for half-maximal inhibition (IC50) in data set [2] of 81.6 nM.
For `CCc1nc2ccn(Cc3ccccn3)c(=O)c2n1[C@H]1CCc2cc(-c3ccccc3-c3nnn[nH]3)ccc21`, in that order: 3580 nM and 63.8 nM.

(Values after ChEMBL document CHEMBL2321681, “Design, synthesis, and evaluation of imidazo[4,5-c]pyridin-4-one derivatives with dual activity at angiotensin II type 1 receptor and peroxisome proliferator-activated receptor-γ” (Bioorg Med Chem Lett, 2013).)
